These results are taken from patent publication US12703685B2, “Crystalline forms of solvates of tryptophan derivatives, compositions comprising them and uses thereof” (GALIMEDIX THERAPEUTICS INC., priority 2020, dated 2026).

Square brackets hold non-standard residues; d marks the D form. Peptide text beside a SMILES is read from it. Aib = CC(C)(N)C(=O)O

The term bioavailability denotes the share of a dose that reaches the circulation, judged against a reference dose that is usually intravenous. Read a low bioavailability as little systemic uptake.

The nature of series [1]: Hygroscopicity at 58-60% relative humidity. The following applies: 20-25° C. The format is physicochemical.
For series [2] the following is noted: 50° C.
A short description of series [3]: Stability test of the crystalline salt at 50° C. The format is physicochemical. The note with it: 48 hours.
Series [4] is described as follows: DSC heating above the melting point, residue analyzed by TLC. The class given is physicochemical. The note with it: DSC heating cycle. The text has this: During the second heating cycle the peak of melting was missing, only the high temperature decomposition was observed. […]

Another series can be described thus: Oral bioavailability. The following applies: in vivo, rodents. As to the method:
In some embodiments a pharmaceutical composition of the invention is an oral administration form. […] In some embodiments, the oral availability of the pharmaceutical composition of the invention is in the range of 10%. In another embodiment, the oral availability of the pharmaceutical composition of the invention is above 10%. In some embodiments the pharmaceutical composition is administered once a day, twice a day or three times a day.

Consider `CC(C)(NC(=O)[C@H](N)Cc1c[nH]c2ccccc12)C(=O)O` [UB-18813] (H-[dW]-[Aib]-OH), for which the “hygroscopicity: weight increase of crystals” value in series [1] (24 hours) was determined as 2.64%; in series [1] (48 hours) it was 3.4%. For the same compound, the “stability of 70 w/w % aqueous solution (degradation)” value in series [2] (48 hours) is “no degradation was observed”. Further, the “thermal stability of 70 w/w % solution in water (decomposition by TLC)” value in series [2] (N2 atmosphere, 24 hrs) was “No traces of decomposition”. Besides, in series [3], the “stability of crystalline salt (degradation)” value is given as “no degradation was observed”. The “decomposition after heating above the melting point” value in series [4] was “no decomposition”.

On to `CC(C)(NC(=O)[C@H](N)Cc1c[nH]c2ccccc12)C(=O)O` [compound (1)] (H-[dW]-[Aib]-OH), for which the “solubility of crystalline forms” value in the series “Solubility in water” is “very poor solubility”. Also, in the series “Solubility in water” (deionized water, 24° C., stirred 1 hr, filtered, filtrate evaporated), the “Solubility at 24° C.” value is reported as 1.3 w/w %. In the series “Solubility in water” (deionized water, room temperature), the “solubility in water (concentration of solution)” value was 1.3 w/w %. In “Oral bioavailability”, this compound displayed a bioavailability of roughly 5%.
